Measured values reported in PubChem BioAssay (NCI).
Where “and” joins values, the source holds several entries; their conditions need not be identical. Identical values can stand only once.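 Five compound concentrations were applied to cells in 96-well plates for 48 hours; endpoints were derived by simple linear interpolation of the resulting dose-response curve. Here, GI50 denotes the concentration required for 50% inhibition of growth. TGI is the concentration that stops growth completely.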 *1 amine or outer side, *2 acyl side, *3 side chain or, on linkers, in order; H or OH if unused. Where a SMILES comes first, the peptide text is derived from it. Bridges are numbered along the chain shown (N, C = ends). [ ]: non-standard residue; d: D form. The star is where a group is joined. ξ: configuration not given here. Phe(3,5-F2) = N[C@@H](Cc1cc(F)cc(F)c1)C(=O)O; ξThr(3S) = C[C@H](O[*:3])C(N[*:1])C(=O)[*:2]; Pro(4R-Me) = C[C@H]1CN[C@H](C(=O)O)C1; Pip = O=C(O)[C@@H]1CCCCN1; X1 = Cc1ccc(N*)c(F)c1; CO = O=C([*:1])[*:2]

Columns and labels:
Test in all cases: DTP human tumour cell line panel, 48 h
[1] = tested on: 786-0 renal
[2] = tested on: A498 renal
[3] = tested on: A549 NSCLC
[4] = tested on: ACHN renal
[5] = tested on: BT-549 breast
[6] = tested on: CAKI-1 renal
[7] = tested on: CCRF-CEM leukemia
[8] = tested on: COLO 205 colon
[9] = tested on: DU-145 prostate
[10] = tested on: EKVX NSCLC
[11] = tested on: HCC-2998 colon
[12] = tested on: HCT-116 colon
[13] = tested on: HCT-15 colon
[14] = tested on: HL-60(TB) leukemia
[15] = tested on: HOP-62 NSCLC
[16] = tested on: HOP-92 NSCLC
[17] = tested on: HS 578T breast
[18] = tested on: HT29 colon
[19] = tested on: IGROV1 ovarian
[20] = tested on: K-562 leukemia
[21] = tested on: KM12 colon
[22] = tested on: LOX IMVI melanoma
[23] = tested on: M14 melanoma
[24] = tested on: MALME-3M melanoma
[25] = tested on: MCF7 breast
[26] = tested on: MDA-MB-231 breast
[27] = tested on: MDA-MB-435
[28] = tested on: MOLT-4 leukemia
[29] = tested on: NCI-H226 lung
[30] = tested on: NCI-H23 lung
[31] = tested on: NCI-H460 lung
[32] = tested on: NCI-H522 lung
[33] = tested on: NCI/ADR-RES ovarian
[34] = tested on: OVCAR-3 ovarian
[35] = tested on: OVCAR-4 ovarian
[36] = tested on: OVCAR-5 ovarian
[37] = tested on: OVCAR-8 ovarian
[38] = tested on: PC-3 prostate
[39] = tested on: RPMI-8226 leukemia
[40] = tested on: RXF 393 renal
[41] = tested on: SF-268 CNS
[42] = tested on: SF-295 CNS
[43] = tested on: SF-539 CNS
[44] = tested on: SK-MEL-2 melanoma
[45] = tested on: SK-MEL-28 melanoma
[46] = tested on: SK-MEL-5 melanoma
[47] = tested on: SK-OV-3 ovarian
[48] = tested on: SN12C renal
[49] = tested on: SNB-19 CNS
[50] = tested on: SNB-75 CNS
[51] = tested on: SR leukemia
[52] = tested on: SW-620 colon
[53] = tested on: T-47D breast
[54] = tested on: TK-10 renal
[55] = tested on: U251 CNS
[56] = tested on: UACC-257 melanoma
[57] = tested on: UACC-62 melanoma
[58] = tested on: UO-31 renal

## Cc1ccc(NC(=O)N[C@@H](Cc2cc(F)cc(F)c2)C(=O)NC2C(=O)N3CCC[C@H]3C(=O)N3CCCC[C@H]3C(=O)N[C@@H](C)C(=O)N3C[C@H](C)C[C@H]3C(=O)O[C@H]2C)c(F)c1 (stereo partly drawn) ({X1-CO}-[Phe(3,5-F2)][ξThr(3S)]P[Pip]A[Pro(4R-Me)]; ester 2-C)
[1]
  GI50: 0.422 µM and 0.633 µM
  TGI: 50 µM and > 100 µM
[2]
  GI50: 5.14 µM and 0.95 µM
  TGI: 41.2 µM and 10.2 µM
[3]
  GI50: 0.223 µM and 0.64 µM
  TGI: 50 µM and > 100 µM
[4]
  GI50: 0.321 µM and 0.528 µM
  TGI: 50 µM and > 100 µM
[5]
  GI50: 0.283 µM and 0.26 µM
  TGI: 12 µM and 11.8 µM
[6]
  GI50: 0.21 µM and 0.288 µM
  TGI: 50 µM and > 100 µM
[7]
  GI50: 0.236 µM and 0.127 µM
  TGI: 50 µM and 30.1 µM
[8]
  GI50: 0.124 µM and 0.156 µM
  TGI: 0.338 µM and 0.496 µM
[9]
  GI50: 0.349 µM and 0.147 µM
  TGI: 50 µM and > 100 µM
[10]
  GI50: 0.252 µM and 0.377 µM
  TGI: 50 µM and > 100 µM
[11]
  GI50: 0.255 µM and 0.39 µM
  TGI: 9.17 µM and 10.8 µM
[12]
  GI50: 0.266 µM and 0.0653 µM
  TGI: 7.47 µM and 11.1 µM
[13]
  GI50: 0.231 µM and 0.357 µM
  TGI: 10 µM and 14.9 µM
[14]
  GI50: 0.213 µM and 0.0474 µM
  TGI: 8.61 µM and 2.05 µM
[15]
  GI50: 0.235 µM and 0.322 µM
  TGI: 50 µM and 46.3 µM
[16]
  GI50: 0.163 µM and 0.251 µM
  TGI: 9.01 µM and 3.05 µM
[17]
  GI50: 0.394 µM
  TGI: 50 µM and 8.56 µM
[18]
  GI50: 0.276 µM and 0.302 µM
  TGI: 10.2 µM and 10.1 µM
[19]
  GI50: 2.47 µM and 0.828 µM
  TGI: 40.4 µM and > 100 µM
[20]
  GI50: 0.134 µM and 0.0437 µM
  TGI: 50 µM and > 100 µM
[21]
  GI50: 0.533 µM and 0.384 µM
  TGI: 23.5 µM and 24.3 µM
[22]
  GI50: 0.131 µM and 0.425 µM
  TGI: 6.95 µM and 24.4 µM
[23]
  GI50: 0.297 µM and 0.245 µM
  TGI: 9.86 µM and 16.4 µM
[24]
  GI50: 0.41 µM and 0.561 µM
  TGI: 17.1 µM and 19.1 µM
[25]
  GI50: 0.206 µM and 0.195 µM
  TGI: 50 µM and 53.5 µM
[26]
  GI50: 0.166 µM and 0.279 µM
  TGI: 1.84 µM and 12.8 µM
[27]
  GI50: 0.23 µM and 0.117 µM
  TGI: 12.3 µM and 14.6 µM
[28]
  GI50: 0.545 µM and 0.669 µM
  TGI: 25.8 µM and 22.9 µM
[29]
  GI50: 0.272 µM and 0.368 µM
  TGI: 40.5 µM and 7.75 µM
[30]
  GI50: 0.228 µM
  TGI: 39.4 µM
[31]
  GI50: 0.22 µM and 0.222 µM
  TGI: 50 µM and 21 µM
[32]
  GI50: 0.211 µM and 0.119 µM
  TGI: 8.5 µM and 10.7 µM
[33]
  GI50: 1.73 µM and 1.7 µM
  TGI: 50 µM and > 100 µM
[34]
  GI50: 0.36 µM and 0.312 µM
  TGI: 44.9 µM and 13.2 µM
[35]
  GI50: 0.268 µM and 0.0989 µM
  TGI: 50 µM and > 100 µM
[36]
  GI50: 0.275 µM and 0.506 µM
  TGI: 9.74 µM and 16 µM
[37]
  GI50: 0.194 µM and 0.0646 µM
  TGI: 50 µM and > 100 µM
[38]
  GI50: 0.181 µM and 0.111 µM
  TGI: 50 µM and > 100 µM
[39]
  GI50: 0.119 µM and 0.038 µM
  TGI: 6.25 µM and 1.3 µM
[40]
  GI50: 2.87 µM and 0.778 µM
  TGI: 17.5 µM and 9.16 µM
[41]
  GI50: 0.393 µM and 0.446 µM
  TGI: 50 µM and 48.6 µM
[42]
  GI50: 0.2 µM and 0.24 µM
  TGI: 11.5 µM and 3.58 µM
[43]
  GI50: 0.696 µM and 0.709 µM
  TGI: 11.1 µM and 16.9 µM
[44]
  GI50: 0.198 µM and 0.164 µM
  TGI: 7.58 µM and 0.921 µM
[45]
  GI50: 0.467 µM and 0.709 µM
  TGI: 13.8 µM and 18.4 µM
[46]
  GI50: 0.199 µM and 0.397 µM
  TGI: 7.29 µM and 7.9 µM
[47]
  GI50: 0.225 µM and 0.36 µM
  TGI: 17.4 µM and 7.04 µM
[48]
  GI50: 0.171 µM and 0.303 µM
  TGI: 50 µM and > 100 µM
[49]
  GI50: 0.208 µM and 0.187 µM
  TGI: 50 µM and > 100 µM
[50]
  GI50: 0.289 µM
  TGI: 50 µM
[51]
  GI50: 0.334 µM and 0.626 µM
  TGI: 12.1 µM and 21.6 µM
[52]
  GI50: 0.433 µM and 0.483 µM
  TGI: 50 µM and > 100 µM
[53]
  GI50: 0.222 µM and 0.314 µM
  TGI: 50 µM and 18 µM
[54]
  GI50: 0.385 µM and 0.791 µM
  TGI: 50 µM and 42.7 µM
[55]
  GI50: 0.21 µM and 0.336 µM
  TGI: 50 µM and > 100 µM
[56]
  GI50: 0.191 µM and 0.316 µM
  TGI: 7.58 µM and 7.52 µM
[57]
  GI50: 0.247 µM and 0.451 µM
  TGI: 10.7 µM and 19.3 µM
[58]
  GI50: 0.585 µM and 0.456 µM
  TGI: 50 µM and > 100 µM
